Tests used:
Assay in all cases: relative viability (nuclei count vs DMSO), 5 days (fraction); higher = more cells survive
EMC-BAC-2 = test system: EMC-BAC-2
Summary of the method: (§1)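 Relative viability equals treated-well nuclei counts divided by vehicle-well nuclei counts. Counts came from 4× images of lung cancer cell lines grown in 1536-well plates for 5 days after pin-tool dosing on the day after seeding. Dosing used one drug alone or a fixed anchor-drug dose plus five library-drug doses (not always all listed) in √10 steps, and values are medians of duplicate plates.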

NCI-H23 = test system: NCI-H23
Summary of the method: as §1

HARA = test system: HARA
Summary of the method: as §1

NCI-H322M = test system: NCI-H322M
Summary of the method: as §1

PC-3 [JPC-3] = test system: PC-3 [JPC-3]
Summary of the method: as §1

NCI-H661 = test system: NCI-H661
Summary of the method: as §1

LCLC-97TM1 = test system: LCLC-97TM1
Summary of the method: as §1

NCI-H1792 = test system: NCI-H1792
Summary of the method: as §1

NCI-H1944 = test system: NCI-H1944
Summary of the method: as §1

HCC-827 = test system: HCC-827
Summary of the method: as §1

SK-LU-1 = test system: SK-LU-1
Summary of the method: as §1

NCI-H441 = test system: NCI-H441
Summary of the method: as §1

NCI-H1915 = test system: NCI-H1915
Summary of the method: as §1

NCI-H1793 = test system: NCI-H1793
Summary of the method: as §1

H3255 = test system: H3255
Summary of the method: as §1

HCC-15 = test system: HCC-15
Summary of the method: as §1

NCI-H460 = test system: NCI-H460
Summary of the method: as §1

EKVX = test system: EKVX
Summary of the method: as §1

LC-2-ad = test system: LC-2-ad
Summary of the method: as §1

LU99A = test system: LU99A
Summary of the method: as §1

NCI-H1437 = test system: NCI-H1437
Summary of the method: as §1

NCI-H2126 = test system: NCI-H2126
Summary of the method: as §1

Cc1cnc(-c2cnc(NCCNc3ccc(C#N)cn3)nc2-c2ccc(Cl)cc2Cl)[nH]1 + C[C@]1(O)C[C@@H](c2nc(-c3ccc4ccc(-c5ccccc5)nc4c3)c3c(N)nccn32)C1 [Linsitinib] (partner 1 µM)
relative viability (EMC-BAC-2; first compound 0.08 µM): 0.852
relative viability (EMC-BAC-2; first compound 0.253 µM): 0.792
relative viability (EMC-BAC-2; first compound 0.8 µM): 0.814
relative viability (EMC-BAC-2; first compound 2.53 µM): 0.83
relative viability (NCI-H23; first compound 0.08 µM): 0.674
relative viability (NCI-H23; first compound 0.253 µM): 0.555
relative viability (NCI-H23; first compound 0.8 µM): 0.536
relative viability (NCI-H23; first compound 2.53 µM): 0.691
relative viability (HARA; first compound 0.08 µM): 1.1
relative viability (HARA; first compound 0.253 µM): 0.847
relative viability (HARA; first compound 0.8 µM): 0.921
relative viability (HARA; first compound 2.53 µM): 0.933
relative viability (NCI-H322M; first compound 0.08 µM): 0.99
relative viability (NCI-H322M; first compound 0.253 µM): 0.853
relative viability (NCI-H322M; first compound 0.8 µM): 0.874
relative viability (NCI-H322M; first compound 2.53 µM): 0.947
relative viability (PC-3 [JPC-3]; first compound 0.08 µM): 0.93
relative viability (PC-3 [JPC-3]; first compound 0.253 µM): 0.858
relative viability (PC-3 [JPC-3]; first compound 0.8 µM): 0.943
relative viability (PC-3 [JPC-3]; first compound 2.53 µM): 0.964
relative viability (NCI-H661; first compound 0.08 µM): 0.775
relative viability (NCI-H661; first compound 0.253 µM): 0.628
relative viability (NCI-H661; first compound 0.8 µM): 0.448
relative viability (NCI-H661; first compound 2.53 µM): 0.63
relative viability (LCLC-97TM1; first compound 0.08 µM): 0.206
relative viability (LCLC-97TM1; first compound 0.253 µM): 0.177
relative viability (LCLC-97TM1; first compound 0.8 µM): 0.172
relative viability (LCLC-97TM1; first compound 2.53 µM): 0.208
relative viability (NCI-H1792; first compound 0.08 µM): 0.683
relative viability (NCI-H1792; first compound 0.253 µM): 0.435
relative viability (NCI-H1792; first compound 0.8 µM): 0.464
relative viability (NCI-H1792; first compound 2.53 µM): 0.524
relative viability (NCI-H1944; first compound 0.08 µM): 1.36
relative viability (NCI-H1944; first compound 0.8 µM): 1.23
relative viability (NCI-H1944; first compound 2.53 µM): 1.21
relative viability (HCC-827; first compound 0.08 µM): 0.963
relative viability (HCC-827; first compound 0.8 µM): 1.01
relative viability (HCC-827; first compound 2.53 µM): 0.955
relative viability (SK-LU-1; first compound 0.08 µM): 1.13
relative viability (SK-LU-1; first compound 0.253 µM): 1.12
relative viability (SK-LU-1; first compound 0.8 µM): 1.32
relative viability (SK-LU-1; first compound 2.53 µM): 1.09
relative viability (NCI-H441; first compound 0.08 µM): 0.662
relative viability (NCI-H441; first compound 0.253 µM): 0.445
relative viability (NCI-H441; first compound 0.8 µM): 0.606
relative viability (NCI-H441; first compound 2.53 µM): 0.519
relative viability (NCI-H1915; first compound 0.08 µM): 1.08
relative viability (NCI-H1915; first compound 0.8 µM): 1.11
relative viability (NCI-H1915; first compound 2.53 µM): 1.08
relative viability (NCI-H1793; first compound 0.08 µM): 1.16
relative viability (NCI-H1793; first compound 0.253 µM): 0.822
relative viability (NCI-H1793; first compound 0.8 µM): 0.809
relative viability (NCI-H1793; first compound 2.53 µM): 0.916
relative viability (H3255; first compound 0.08 µM): 1.15
relative viability (H3255; first compound 0.253 µM): 0.884
relative viability (H3255; first compound 0.8 µM): 0.928
relative viability (H3255; first compound 2.53 µM): 0.944
relative viability (HCC-15; first compound 0.08 µM): 0.897
relative viability (HCC-15; first compound 0.253 µM): 0.811
relative viability (HCC-15; first compound 0.8 µM): 0.8
relative viability (HCC-15; first compound 2.53 µM): 0.835
relative viability (NCI-H460; first compound 0.08 µM): 0.918
relative viability (NCI-H460; first compound 0.253 µM): 0.623
relative viability (NCI-H460; first compound 0.8 µM): 0.974
relative viability (NCI-H460; first compound 2.53 µM): 0.782
relative viability (EKVX; first compound 0.08 µM): 1.07
relative viability (EKVX; first compound 0.253 µM): 0.794
relative viability (EKVX; first compound 0.8 µM): 0.934
relative viability (EKVX; first compound 2.53 µM): 0.926
relative viability (LC-2-ad; first compound 0.08 µM): 0.905
relative viability (LC-2-ad; first compound 0.8 µM): 0.858
relative viability (LC-2-ad; first compound 2.53 µM): 0.92
relative viability (LU99A; first compound 0.08 µM): 0.592
relative viability (LU99A; first compound 0.253 µM): 0.538
relative viability (LU99A; first compound 0.8 µM): 0.5
relative viability (LU99A; first compound 2.53 µM): 0.569
relative viability (NCI-H1437; first compound 0.08 µM): 1.01
relative viability (NCI-H1437; first compound 0.253 µM): 0.972
relative viability (NCI-H1437; first compound 0.8 µM): 1.03
relative viability (NCI-H1437; first compound 2.53 µM): 1.04
relative viability (NCI-H2126; first compound 0.08 µM): 0.739
relative viability (NCI-H2126; first compound 0.253 µM): 0.726
relative viability (NCI-H2126; first compound 0.8 µM): 0.753
relative viability (NCI-H2126; first compound 2.53 µM): 0.704
